Assay results taken from patent publication US9980924B2, “Topical pterostilbene compositions for use in treating UV-induced loss of barrier function in skin” (The Regents of the University of California, priority 2014, dated 2018).
“Also recorded” adds a separate entry of the source.

How the values were obtained:
human liver microsomes = assay: in vitro glucuronidation assay with pooled human liver microsomes; format: in vitro ADME; conditions: 100 μg pooled human liver microsomes (n=20), 500 μM compound
Procedure: Human liver microsomes metabolize resveratrol much faster than pterostilbene. […] HPLC chromatographs are presented depicting either parent compound or indicated glucuronide metabolite. Glucuronide metabolite peaks were confirmed by subsequent treatment with β-glucuronidase (data not shown). Detection of peaks by UV/VIS detector at 308 nm.
Specifically, in vitro glucuronidation assays were performed as previously described in one co-inventor's work (Dellinger, R. W., et al., “Glucuronidation of PhIP and N—OH-PhIP by UDP-glucuronosyltransferase 1A10,” Carcinogenesis (2007) 28: 2412-8; Dellinger, R. W., et al., “Importance of UDP-glucuronosyltransferase 1A10 (UGT1A10) in the detoxification of polycyclic aromatic hydrocarbons: decreased glucuronidative activity of the UGT1A10139Lys isoform,” Drug Metab. Dispos. (2006) 34: 943-9; Chen, G., Dellinger, R. W., et al., “Glucuronidation of tobacco-specific nitrosamines by UGT2B10,” Drug Metab. Dispos.

SKH-1 mice = assay: UV-B-induced skin damage and loss of barrier function (redness, TEWL) in SKH-1 mice, topical treatment; format: in vivo; conditions: topical 10 μmol/0.2 ml acetone/mouse 30 minutes before 180 mJ/cm^2 UV-B, every 2 days, 7 treatments; for prevention of UV-mediated transepidermal water loss (TEWL) / loss of barrier function: versus vehicle+UV-B
Text: FIG. 2 depicts the manner in which pterostilbene prevents UV-B induced damage in the skin of SKH-1 mice. […] Photographs show representative mice after 4th treatment.
FIG. 3 depicts the manner in which pterostilbene prevents UV-mediated loss of skin barrier function in SKH-1 mice after exposure to UV-B radiation as described above for FIG. 2. TEWL measurements are expressed in g/m^2·h (and labeled ‘TD Water Loss’).
UV-B exposure. Mice were exposed to a single dose of 180mJ/cm^2 UVB radiation delivered via broadband UVB lamps (TL 40W/12 RS; Philips) emitting 290-350 nm light with a peak emission at 312 nm. The irradiance was measured using a thermopile sensor (818P-001-12; Newport Inc., Irvine, Calif.) and power meter (842-PE; Newport Inc.).
TEWL measurement. For transepidermal water loss (TEWL) a closed measurement chamber device (VapoMeter, Delfin Technologies Ltd, Kuopio, Finland) measuring flux density (gram/m^2·h) was used applying the sensor with even and constant pressure to dorsal skin by a single operator per manufacturer's instructions.
Statistics. All statistical analyses were performed using CRAN R, version 3.0.0, an open-source program of The R Foundation for Statistical Computing. Linear mixed-effect models were fit for each endpoint with a random effect for the mouse and fixed effects for UV exposure, treatment group, and their interaction.
Hairless SKH-1 mice were used to evaluate the effectiveness of pterostilbene at preventing UV-mediated damage in skin. The SKH-1 model is ideally suited for this purpose and is commonly used in preclinical studies and yielded valuable results. […] To ascertain if pterostilbene could also prevent those molecular alterations, we replicated these experiments. […] For all topical treatments 200 μl total volume was applied to the back skin of the mouse. For acetone group, 200 μl of acetone was applied. […] These mice were treated every 2 days for 7 total treatments. […] 24 hrs after last treatment, mice were euthanized, skin bi-fold measurements taken and back skins collected. […] This prevention of visual skin damage by pterostilbene correlated nicely with the prevention of loss of barrier function. […] Therefore pterostilbene prevented UV-induced loss of barrier function of the skin of SKH-1 mice.

[1] = cited from earlier work
[2] = rats; cited from earlier work
[3] = 125 mg orally twice a day; cited from earlier work
mouse epidermis = conditions: cited from earlier work
mouse skin = conditions: cited from earlier work
[4] = humans; cited from earlier work

COc1cc(/C=C/c2ccc(O)cc2)cc(OC)c1 [pterostilbene, 3,5-dimethoxy-4′-hydroxy-trans-stilbene]
fraction metabolized (glucuronidated) after 2 hours (human liver microsomes): 20% | redness (sunburn) on back skin after UV-B (SKH-1 mice): no redness was observed on any of the 5 mice | prevention of UV-mediated transepidermal water loss (TEWL) / loss of barrier function (SKH-1 mice): prevents TEWL after UV exposure; also recorded: prevented UV-mediated TEWL | half life t1/2 in blood [1]: about 105 minutes | increased bioavailability in comparison to resveratrol [2]: 5 fold | overall blood pressure [3]: reduction in overall blood pressure was observed | toxicity in patients [3]: no toxicity reported | COX-2 activation and TPA-induced tumor formation in mouse epidermis in vivo (mouse epidermis): prevent

Oc1ccc(C=Cc2cc(O)cc(O)c2)cc1 [resveratrol]
conversion to glucuronides after 2 hours (in words) (human liver microsomes): almost completely converted to its glucuronides | redness (sunburn) on back skin after UV-B (SKH-1 mice): able to limit the amount of redness observed on the back, it did not prevent it | prevention of UV-mediated transepidermal water loss (TEWL) / loss of barrier function (SKH-1 mice): did not prevent TEWL | prevention of UV-mediated transepidermal water loss (TEWL) / loss of barrier function (SKH-1 mice; listed as Resveratrol): ineffective | half life t1/2 in blood [1]: about 14 minutes | UV-B mediated cell damage (including hyperplasia) in mouse skin (mouse skin; given orally or applied topically): prevents UV-B mediated cell damage (including hyperplasia) | UV-induced skin cancer progression (mouse skin; several mouse studies): block UV-induced skin cancer progression | bioavailability (in words) [4]: poor bioavailability
